Data as given in article PMC4592236, “Pathogen- and Host-Directed Antileishmanial Effects Mediated by Polyhexanide (PHMB)” (PLoS Neglected Tropical Diseases, 2015).
Structures can show the parent of a compound that is named as a salt. Where two headings read alike, the source gives them in different places.

Experiments:
BMDM [1] = test: AlamarBlue cytotoxicity assay, BMDM; type: cell-based, BALB/c mice; conditions: average of 3–6 independent experiments, read-out: IC50 BMDMs
[2] = system: intracellular L. major amastigotes; test: microbe, parasite or virus in culture; type: cell-based, Leishmania major; conditions: for IC50: intracellular amastigotes in BMDM, luciferase; for IC50 (μM) amastigotes: Table 2, without dynasore, two independent experiments
Description: The assay is based on bioluminescence measurement of firefly luciferase, which catalyzes the formation of light from ATP and luciferin. The virulent luciferase-transgenic (Luc-tg) L. major strain containing a firefly luciferase reporter gene was maintained by continuous passage in female BALB/c mice and was grown in 96-well blood agar cultures at 27°C, 5% CO2, and 95% humidity. A luciferase-transgenic L. major strain was used to infect BMDM according to our recently established protocol. Briefly, BMDM numbers were adjusted to 2 × 10^5, cultured in 96-well plates and incubated for 4 h to allow adherence to the surface. The promastigote number was adjusted to 3 × 10^6 parasites per ml to achieve an infection rate of 1:15. Then, infection was made by discarding the supernatant of the cultured cells and replacing it with an equal volume of complete RPMI medium containing the promastigotes' suspension. After incubating the infected BMDM (37°C, 5% CO2) for 24 h to allow full differentiation of the promastigotes into amastigotes, the medium containing the extracellular parasites was removed and the wells were washed three times with the same RPMI medium. Five serial dilutions of each substance (1:5) in the same fresh RPMI medium were added to the infected BMDM in duplicate with the appropriate controls. After further 24 h of incubation at 37°C and 5% CO2, the infected BMDM were lysed with a luciferin-containing buffer (Britelite, PerkinElmer, Germany) and luminescence was measured with a luminescence plate reader, Victor X Light 2030 luminometer (PerkinElmer). The IC50 values of the compounds against intracellular amastigotes were calculated based on the intercept theorem, as previously described.

L. major promastigotes [3] = test: AlamarBlue assay against L. major promastigotes; type: cell-based, Leishmania major; conditions: for IC50 (μM) promastigotes: Table 2, without dynasore
Description: Cytotoxicities of the different compounds or formulations against mammalian cell (BMDM or 293T epithelial cells) and L. major promastigotes were determined as previously described. Briefly, 4 × 10^4 mammalian cells or 10 × 10^6 virulent L. major promastigotes (MHOM/IL/81/FE/BNI strain) in the log phase of growth were added to each well of 96-well plates and cultured with five increasing concentrations of each compound at 37°C or 27°C for 24 h, respectively. Standard antileishmanial drugs including amphotericin B (A2942), pentamidine isothionate (P0547) and paromomycin sulfate (P9297) from Sigma-Aldrich (Deisenhofen, Germany) and miltefosine (1-hexadecylphosphorylcholine) (Cayman Chemical Company, Ann Arbor, MI, USA) were used as positive controls. The AlamarBlue dye (Trinova Biochem GmbH, Giessen, Germany) was added to each well at 10% concentration and incubated for a further 48 h. The optical density (OD) was then measured by using Multiskan Ascent ELISA reader at a wavelength 550 nm and 630 nm. The OD value or % dye reduction is proportional to viable cell/parasite number and was used for IC50 calculation based on the intercept theorem.

L. major promastigotes [4] = test: PHMB-FITC uptake into promastigotes (flow cytometry); type: cell-based, Leishmania major; conditions: PHMB-FITC 0.35 μM
BMDM [5] = test: Cellular uptake by BMDM (flow cytometry); type: cell-based, BALB/c mice; conditions: pre-incubation with inhibitor 30 min, then 4 h
Description: PI and YO-PRO-1 dyes (Life Technologies, Darmstadt, Germany) uptake by the promastigotes was measured by MACS Quant Analyzer (Miltenyi Biotec, Bergisch Gladbach, Germany), and used to indicate membrane integrity. […] L. major promastigotes were treated with 2 μM PHMB for indicated time points and then washed at 3,000 × g for 10 min. The samples were stained by incubating with PI or YO-PRO-1 dyes for 15 min in the dark at RT according to manufacturer’s instructions. The samples were then washed and a total of 100,000 events were immediately acquired by flow cytometry. Similarly, adherent BMDM cells were allowed to take-up fluorescent PHMB (PHMB-FITC conjugate) in the presence or absence of five different pharmacological inhibitors (cytochalasin D (C8273, used at 5 μg/ml), wortmannin (W1628, used at 12.85 μg/ml), chlorpromazine hydrochloride (C8138, used at 10 μg/ml), ikarugamycin (SML0188, used at 1 μM) and dynasore (D7693, used at 25.8 μg/ml), Sigma-Aldrich, Deisenhofen, Germany). PHMB (Polyhexamethylene biguanide; CAS# 27083-27-8; alternative chemical names: polyhexanide, polyamino propylbiguanide, Mw = 2780 g/mol) was provided by the laboratory of Dr. Liam Good and by Tecrea Ltd, London UK (www.tecrea.co.uk), at stock concentrations of 1 mg/ml and 200 mg/ml. […] The data were analyzed using FlowJo software (Tree Star Inc., CA, USA).

BMDM [6] = test: Cytokine production by BMDM (ELISA); type: cell-based, BALB/c mice; conditions: BMDM supernatants, 48 h
Description: BMDM were generated from female BALB/c mice as described above in cell culture. 1 × 10^6 BMDM were seeded in a final volume of 0.5 ml in 24-well plates, infected with L. major promastigotes at 15:1 parasite to BMDM ratio, washed and incubated at 37°C for 30 min in complete RPMI medium containing CpG ODN (15 μg/ml). PHMB, CpG ODN or PHMB/CpG ODN polyplexes were added to the pre-activated or control cells and further incubated for 48 h. The supernatants were collected and IL-6, IL-10, IL-4 or TNF-α (Biosciences, Wiesbaden, Germany) concentrations were measured by sandwich ELISA while IL-12p70 was measured by using the IL-12p70 ELISA Ready-SET-Go kit from eBioscience according to the suppliers' instructions.

[7] = Leishmania major, AlamarBlue, average of 3–6 independent experiments
[8] = concentration of PHMB within polyplexes
[9] = concentration of PHMB within polyplexes, listed as Dynasore (80 μM)
[10] = with dynasore (80 μM), concentration of PHMB within polyplexes
[11] = AlamarBlue, average of 3–6 independent experiments

C[C@@H]1[C@H](O)[C@@H](C)/C=C/C=C/C=C/C=C/C=C/C=C/C=C/[C@H](O[C@@H]2O[C@H](C)[C@@H](O)[C@H](N)[C@@H]2O)C[C@@H]2O[C@](O)(C[C@@H](O)C[C@@H](O)[C@H](O)CC[C@@H](O)C[C@@H](O)CC(=O)O[C@H]1C)C[C@H](O)[C@H]2C(=O)O [Amphotericin B, amphotericin B]
IC50 (BMDM [1]; Mus musculus, BMDM): > 21 µM | IC50 ([2]; Leishmania major): 0.099 ± 0.05 µM | IC50 (L. major promastigotes [3]; [7]): 0.42 ± 0.5 µM

O=C(N/N=C/c1ccc(O)c(O)c1)c1cc2ccccc2cc1O [Dynasore, dynasore]
IC50 (μM) amastigotes [2, 8]: did not display cytotoxicity | IC50 (μM) amastigotes [2, 9]: No activity | IC50 amastigotes + dynasore (μM) [2, 10]: No activity | inhibition of PHMB-FITC uptake into promastigotes (L. major promastigotes [4]): more than 98% | inhibition of PHMB-FITC uptake by BMDM (BMDM [5]): 80% | IC50 (μM) promastigotes (L. major promastigotes [3]; [8]): did not display cytotoxicity | IC50 (μM) promastigotes (L. major promastigotes [3]; [9]): No activity | IC50 promastigotes + dynasore (μM) (L. major promastigotes [3]; [10]): No activity

CCCCCCCCCCCCCCCCOP(=O)([O-])OCC[N+](C)(C)C [Miltefosine, 1-hexadecylphosphorylcholine]
IC50 (BMDM [1]; Mus musculus, BMDM): 75.6 ± 10.9 µM | IC50 ([2]; Leishmania major): 54 ± 8.1 µM | IC50 (L. major promastigotes [3]; [7]): 28.3 ± 5.2 µM

NC[C@@H]1O[C@H](O[C@H]2[C@@H](O)[C@H](O[C@@H]3[C@@H](O)[C@H](N)C[C@H](N)[C@H]3O[C@H]3O[C@H](CO)[C@@H](O)[C@H](O)[C@H]3N)O[C@@H]2CO)[C@H](N)[C@@H](O)[C@@H]1O [Paromomycin, paromomycin sulfate]
IC50 (BMDM [1]; Mus musculus, BMDM): > 900 µM | IC50 ([2]; Leishmania major): 1500 ± 112 µM | IC50 (L. major promastigotes [3]; [7]): > 500 µM

N=C(N)c1ccc(OCCCCCOc2ccc(C(=N)N)cc2)cc1 [Pentamidine, pentamidine isothionate]
IC50 (BMDM [1]; Mus musculus, BMDM): 128 ± 24 µM | IC50 ([2]; Leishmania major): 6.38 ± 2.4 µM | IC50 (L. major promastigotes [3]; [7]): 16.2 ± 3.1 µM

CpG ODN: unmethylated cytosine-phosphate-guanine oligodeoxynucleotide 1668, sequence TCCATGACGTTCCTGATGCT (DNA, backbone not given here)
IC50 (BMDM [1]): > 150 µM | cytokine production (IL-6, IL-10, IL-12) (BMDM [6]): production of all cytokines tested increased with increasing doses | IC50 [2]: > 150 µM | IC50 (L. major promastigotes [3]; [11]): > 150 µM | IC50 promastigotes (L. major promastigotes [3]; [11]): did not show activity
